Laboratory results from PubChem BioAssay AID1259407 (Chemical Carcinogenesis Research Information System (CCRIS), 2018).
The source made the active and inactive calls. The rule behind the calls is not given here.

Test system: CCRIS mutagenicity, Ames/micronucleus/aberration tests
Experiment: CCRIS mutagenicity studies
[1] = Test System: AMES SALMONELLA TYPHIMURIUM, Strain/Indicator: TA98, Metabolic Activation: NONE, Method: STANDARD PLATE
[2] = Test System: AMES SALMONELLA TYPHIMURIUM, Strain/Indicator: TA98, Metabolic Activation: RAT, LIVER, S-9, AROCLOR 1254, Method: STANDARD PLATE
[3] = Test System: AMES SALMONELLA TYPHIMURIUM, Strain/Indicator: TA100, Metabolic Activation: RAT, LIVER, S-9, AROCLOR 1254, Method: STANDARD PLATE

Structure (SMILES): C/C=C/C=O
- mutagenic call (End Point: IN VITRO CHROMOSOMAL ABERRATIONS, Test System: CHINESE HAMSTER OVARY CELLS, Metabolic Activation: NONE): active; positive
- mutagenic call (End Point: IN VITRO CHROMOSOMAL ABERRATIONS, Test System: CHINESE HAMSTER OVARY CELLS, Metabolic Activation: RAT, LIVER, S-9, AROCLOR 1254): active; positive
- mutagenic call (End Point: IN VITRO CHROMOSOMAL ABERRATIONS, Test System: CHL CELLS, Metabolic Activation: RAT, LIVER, S-9, SODIUM PHENOBARBITAL AND 5,6-BENZOFLAVONE): active; positive (structural changes)
- mutagenic call (End Point: In vivo chromosomal aberrations, Test System: Bone marrow, Species: Mouse, Strain/Sex: Swiss/ 3 males and 2 females per group, Route: Intraperitoneal): active; positive (statistically significant at all doses and durations) (structural aber
- mutagenic call (End Point: In vivo chromosomal aberrations, Test System: Spermatocytes, Species: Mouse, Strain/Sex: Swiss/males, Route: Intraperitoneal): active; positive (dose-related) (autosomal univalents, x-y univalents, fragments or brea
- mutagenic call (Test System: AMES SALMONELLA TYPHIMURIUM, Strain/Indicator: TA98, Metabolic Activation: NONE, Method: FLUCTUATION (MICROTITER)): active; positive
- mutagenic call (Test System: AMES SALMONELLA TYPHIMURIUM, Strain/Indicator: TA98, Metabolic Activation: NONE, Method: PREINCUBATION): active; positive
- mutagenic call (Test System: AMES SALMONELLA TYPHIMURIUM, Strain/Indicator: TA98, Metabolic Activation: RAT LIVER S-9, PHENOBARBITAL AND BETA-NAPHTHOFLAVONE, Method: PREINCUBATION): active; positive
- mutagenic call (Test System: AMES SALMONELLA TYPHIMURIUM, Strain/Indicator: TA100, Metabolic Activation: NONE, Method: MODIFIED LIQUID SUSPENSION): active; positive
- mutagenic call (Test System: AMES SALMONELLA TYPHIMURIUM, Strain/Indicator: TA100, Metabolic Activation: NONE, Method: PREINCUBATION): active; positive
- mutagenic call (Test System: AMES SALMONELLA TYPHIMURIUM, Strain/Indicator: TA100, Metabolic Activation: NONE, Method: PREINCUBATION (THREEFOLD CELL DENSITY)): active; positive
- mutagenic call (Test System: AMES SALMONELLA TYPHIMURIUM, Strain/Indicator: TA100, Metabolic Activation: RAT LIVER S-9, PHENOBARBITAL AND BETA-NAPHTHOFLAVONE, Method: PREINCUBATION): active; positive
- mutagenic call (Test System: AMES SALMONELLA TYPHIMURIUM, Strain/Indicator: TA100, Metabolic Activation: RAT, LIVER, S-9, AROCLOR 1254, Method: MODIFIED LIQUID SUSPENSION): active; positive
- mutagenic call (Test System: AMES SALMONELLA TYPHIMURIUM, Strain/Indicator: TA100, Metabolic Activation: RAT, LIVER, S-9, AROCLOR 1254, Method: PREINCUBATION (THREEFOLD CELL DENSITY)): active; positive
- mutagenic call (Test System: AMES SALMONELLA TYPHIMURIUM, Strain/Indicator: TA104, Metabolic Activation: NONE, Method: PREINCUBATION): active; positive
- mutagenic call (Test System: AMES SALMONELLA TYPHIMURIUM, Strain/Indicator: TA1535, Metabolic Activation: NONE, Method: PREINCUBATION): inactive; negative
- mutagenic call (Test System: AMES SALMONELLA TYPHIMURIUM, Strain/Indicator: TA1535, Metabolic Activation: RAT LIVER S-9, PHENOBARBITAL AND BETA-NAPHTHOFLAVONE, Method: PREINCUBATION): inactive; negative
- mutagenic call (Test System: AMES SALMONELLA TYPHIMURIUM, Strain/Indicator: TA1537, Metabolic Activation: NONE, Method: FLUCTUATION (MICROTITER)): inactive; negative
- mutagenic call (Test System: AMES SALMONELLA TYPHIMURIUM, Strain/Indicator: TA1537, Metabolic Activation: RAT LIVER S-9, PHENOBARBITAL AND BETA-NAPHTHOFLAVONE, Method: PREINCUBATION): inactive; negative
- mutagenic call (Test System: AMES SALMONELLA TYPHIMURIUM, Strain/Indicator: TA7001, Metabolic Activation: NONE, Method: FLUCTUATION (MICROTITER)): inactive; negative
- mutagenic call (Test System: AMES SALMONELLA TYPHIMURIUM, Strain/Indicator: TA7002, Metabolic Activation: NONE, Method: FLUCTUATION (MICROTITER)): active; positive
- mutagenic call (Test System: AMES SALMONELLA TYPHIMURIUM, Strain/Indicator: TA7003, Metabolic Activation: NONE, Method: FLUCTUATION (MICROTITER)): inactive; negative
- mutagenic call (Test System: AMES SALMONELLA TYPHIMURIUM, Strain/Indicator: TA7004, Metabolic Activation: NONE, Method: FLUCTUATION (MICROTITER)): active; positive
- mutagenic call (Test System: AMES SALMONELLA TYPHIMURIUM, Strain/Indicator: TA7005, Metabolic Activation: NONE, Method: FLUCTUATION (MICROTITER)): active; positive
- mutagenic call (Test System: AMES SALMONELLA TYPHIMURIUM, Strain/Indicator: TA7006, Metabolic Activation: NONE, Method: FLUCTUATION (MICROTITER)): active; positive
- mutagenic call (Test System: CHINESE HAMSTER OVARY, Strain/Indicator: AS52/6-THIOGUANINE, Metabolic Activation: NONE, Method: STANDARD PLATE): inactive; negative
- mutagenic call (Test System: E.COLI, Strain/Indicator: WP2UVRA, Metabolic Activation: NONE, Method: PREINCUBATION): inactive; negative
- mutagenic call (Test System: E.COLI, Strain/Indicator: WP2UVRA, Metabolic Activation: RAT LIVER S-9, PHENOBARBITAL AND BETA-NAPHTHOFLAVONE, Method: PREINCUBATION): inactive; negative

Structure (SMILES): COc1c2ccoc2c(OC)c2oc(=O)ccc12
- mutagenic call [1]: inactive; negative
- mutagenic call (Test System: AMES SALMONELLA TYPHIMURIUM, Strain/Indicator: TA98, Metabolic Activation: RAT, LIVER, S-9, PHENOBARBITAL, Method: STANDARD PLATE): inactive; negative

Structure (SMILES): c1cc2ccc3cc4occc4c4ccc(c1)c2c34
- mutagenic call [1]: inactive; negative
- mutagenic call [2]: active; positive

Structure (SMILES): Cc1ccc2c3c1ccc1cccc(c13)C2
- mutagenic call [3]: active; positive

Structure (SMILES): Oc1cc2ccccc2c2ccc3ccccc3c12
- mutagenic call [1]: inactive; negative
- mutagenic call [2]: inactive; negative
- mutagenic call (Test System: AMES SALMONELLA TYPHIMURIUM, Strain/Indicator: TA100, Metabolic Activation: NONE, Method: STANDARD PLATE): inactive; negative
- mutagenic call [3]: inactive; negative

Structure (SMILES): Cc1nc2c(ccc3ccc4ccc(O)cc4c32)[nH]1
- mutagenic call [2]: active; positive
- mutagenic call (Test System: AMES SALMONELLA TYPHIMURIUM, Strain/Indicator: TA98, Metabolic Activation: RAT, LIVER, S-9, AROCLOR, Method: STANDARD PLATE): active; positive
